Test results as given in patent EP4168403B1 (priority 2020, dated 2021).
Entries after “also recorded” stand apart in the source; their conditions may differ.

What was measured:
[1] = Oxygen Radical Absorbance Capacity (ORAC-FL) assay; conditions: Trolox equivalents (µmol of Trolox equivalent/µmol of compound)
Protocol: The radical scavenging capacity of the TFAHs was determined by the ORAC-FL method using fluorescein as a fluorescent probe^33,34. (±)-6-Hydroxy-2,5,7,8-tetramethylchromane-2-carboxylic acid (Trolox), fluorescein (FL) and 2,2'-azobis(amidinopropane) dihydrochloride (AAPH) were purchased from Sigma-Aldrich. A Varioskan Flash plate reader with built-in injectors (Thermo Scientific) was used. The reaction was carried out at 37 °C in 75 mM phosphate buffer (pH= 7.4), and the final volume reaction mixture was 200 µL. The tested compounds and Trolox standard were dissolved in DMSO to 10 mM and further diluted in 75 mM phosphate buffer (pH= 7.4). The final concentrations were 0.1-1 µM for the tested compounds and 1-8 µM for Trolox standard. The blank was composed of 120 µL of FL, 60 µL of AAPH and 20 µL of phosphate buffer (pH=7.4) and was added in each assay.
The net AUC corresponding to a sample was calculated as follows: Net AUC = AUCantioxidant −AUCblank . [formula]
Regression equations were calculated by plotting the net AUC against the antioxidant concentration. The ORAC value was obtained by dividing the slope of the latter curve between the slope of the Trolox curve obtained in the same assay. Final ORAC values were expressed as µmol of Trolox equivalent/µmol of TFAH.

[2] = target: T1, Human red-blood cell acetylcholinesterase (hAChE; EC 3.1.1.7) (Homo sapiens, UniProt P22303); assay: biochemical; conditions: pH 7.4, 37 °C, mean ± SEM, read-out: AChE (IC50 µM)
T1 construct: Human red-blood cell acetylcholinesterase; purchased Sigma-Aldrich (Prague, Czech Republic); host or cells: human red blood cells
T1 sequence (P22303 32-617 isoform P22303-2 limits assumed): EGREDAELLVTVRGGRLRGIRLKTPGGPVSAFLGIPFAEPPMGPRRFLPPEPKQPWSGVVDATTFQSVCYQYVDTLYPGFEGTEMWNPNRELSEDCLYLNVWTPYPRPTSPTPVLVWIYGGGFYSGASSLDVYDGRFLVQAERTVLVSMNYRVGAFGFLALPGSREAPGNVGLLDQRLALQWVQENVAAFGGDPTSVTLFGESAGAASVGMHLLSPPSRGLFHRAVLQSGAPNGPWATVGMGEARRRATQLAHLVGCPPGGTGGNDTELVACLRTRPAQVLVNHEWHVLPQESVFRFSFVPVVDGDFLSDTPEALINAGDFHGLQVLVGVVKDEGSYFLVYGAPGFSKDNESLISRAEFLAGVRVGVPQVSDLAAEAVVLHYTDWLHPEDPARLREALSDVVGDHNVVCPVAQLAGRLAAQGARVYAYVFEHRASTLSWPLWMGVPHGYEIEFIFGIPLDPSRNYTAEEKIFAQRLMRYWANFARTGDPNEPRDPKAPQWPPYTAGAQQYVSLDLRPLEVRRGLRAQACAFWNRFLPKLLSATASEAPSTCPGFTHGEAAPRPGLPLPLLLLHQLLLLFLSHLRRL
Protocol: The AChE and BuChE inhibitory activity of the tested compounds was determined using a modified Ellman's method^31, 32.Human red-blood cell acetylcholinesterase (hAChE; EC 3.1.1.7), and human recombinant butyrylcholinesterase (hBuChE; EC 3.1.1.8), 5,5'-dithiobis(2-nitrobenzoic acid) (Ellman's reagent, DTNB), phosphate buffer (PB, pH 7.4), acetylthiocholine (ATC), and butyrylthiocholine (BTC), were purchased from Sigma-Aldrich (Prague, Czech Republic). Nunc polystyrene 96-well microplates with flat-bottom shape (ThermoFisher Scientific, USA) were used for the measurement and all the assay were carried out in 0.1 M KH2PO4/K2HPO4 buffer, pH 7.4. Enzyme solution was prepared at activity 2.0 units/mL in 2 mL aliquots. The assay mixture (100 µL) consisted of 40 µL of 0.1 M phosphate buffer (pH 7.4), 20 µL of 0.01 M DTNB, 10 µL of enzyme, and 20 µL of 0.01 M substrate (ATC iodide solution). Tested compounds were dissolved first in methanol (BIGI 23 in DMSO) and then further diluted by assay buffer to the final concentration. […] Enzyme with the inhibitor was preincubated for 5 min in the assay mixture and then the reaction was started by addition of 20 µL of substrate (ATC for AChE, BTC for BuChE). […] Each concentration was assayed in triplicate. The obtained data were used to compute the percentage inhibition (I; Equation 1): I = 1−(ΔAi)/(ΔA0) [%] [formula] ΔAi indicates the absorbance change provided by cholinesterase exposed to AChE inhibitors and ΔA0 indicates absorbance change caused by intact cholinesterase (phosphate buffer was used instead of AChE inhibitor solution).

[3] = Prediction of blood-brain barrier penetration (PAMPA); assay type: in vitro ADME; conditions: for CNS: PAMPA prediction of ability to cross the blood-brain barrier
Protocol: To predict passive blood-brain penetration of novel compounds modification of the parallel artificial membrane permeation (PAMPA) assay has been used based on reported protocol^38, 39. The filter membrane of the donor plate was coated with PBL (Polar Brain Lipid, Avanti, USA) in dodecane (4 µl of 20 mg/ml PBL in dodecane) and the acceptor well was filled with 300 µl of PBS pH 7.4 buffer (VD). Tested compounds were dissolved first in DMSO (0.5% (V/V) final) and that diluted with PBS pH 7.4 to reach the final concentration 50 µM in the donor well. 300 µl of the donor solution was added to the donor wells (VA) and the donor filter plate was carefully put on the acceptor plate so that coated membrane was "in touch" with both donor solution and acceptor buffer. Test compound diffused from the donor well through the lipid membrane (Area=0.28cm^2) to the acceptor well. The concentration of the drug in both donor and the acceptor wells was assessed after 3, 4, 5 and 6 hours of incubation in quadruplicate using the UV plate reader Synergy HT (Biotek, USA) at the maximum absorption wavelength and the standard curve for each compound. […]

[4] = target: T2, human recombinant butyrylcholinesterase (hBuChE; EC 3.1.1.8) (Homo sapiens, UniProt P06276); assay: Cholinesterase inhibition in vitro assay (modified Ellman's method), BuChE; assay type: biochemical; conditions: pH 7.4, 37 °C, mean ± SEM, read-out: BChE (IC50 µM)
T2 construct: purchased Sigma-Aldrich (Prague, Czech Republic)
T2 sequence (P06276 29-602): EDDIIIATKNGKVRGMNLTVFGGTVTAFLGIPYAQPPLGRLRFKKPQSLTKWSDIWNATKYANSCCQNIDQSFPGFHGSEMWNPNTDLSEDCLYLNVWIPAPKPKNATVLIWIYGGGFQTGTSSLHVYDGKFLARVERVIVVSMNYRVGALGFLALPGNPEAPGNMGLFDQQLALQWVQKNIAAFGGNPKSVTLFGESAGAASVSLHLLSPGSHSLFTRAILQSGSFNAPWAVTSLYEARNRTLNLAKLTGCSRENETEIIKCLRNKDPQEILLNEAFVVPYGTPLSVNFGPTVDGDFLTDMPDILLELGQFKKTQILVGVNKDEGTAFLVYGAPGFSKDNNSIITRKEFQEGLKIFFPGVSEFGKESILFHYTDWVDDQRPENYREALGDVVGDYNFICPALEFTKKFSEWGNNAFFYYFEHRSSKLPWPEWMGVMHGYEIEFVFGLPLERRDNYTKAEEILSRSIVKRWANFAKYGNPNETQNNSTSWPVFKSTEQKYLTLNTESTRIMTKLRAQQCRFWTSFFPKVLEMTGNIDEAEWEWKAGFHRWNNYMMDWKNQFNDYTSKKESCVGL
Protocol: The AChE and BuChE inhibitory activity of the tested compounds was determined using a modified Ellman's method^31, 32.Human red-blood cell acetylcholinesterase (hAChE; EC 3.1.1.7), and human recombinant butyrylcholinesterase (hBuChE; EC 3.1.1.8), 5,5'-dithiobis(2-nitrobenzoic acid) (Ellman's reagent, DTNB), phosphate buffer (PB, pH 7.4), acetylthiocholine (ATC), and butyrylthiocholine (BTC), were purchased from Sigma-Aldrich (Prague, Czech Republic). Nunc polystyrene 96-well microplates with flat-bottom shape (ThermoFisher Scientific, USA) were used for the measurement and all the assay were carried out in 0.1 M KH2PO4/K2HPO4 buffer, pH 7.4. Enzyme solution was prepared at activity 2.0 units/mL in 2 mL aliquots. The assay mixture (100 µL) consisted of 40 µL of 0.1 M phosphate buffer (pH 7.4), 20 µL of 0.01 M DTNB, 10 µL of enzyme, and 20 µL of 0.01 M substrate (ATC iodide solution). Tested compounds were dissolved first in methanol (BIGI 23 in DMSO) and then further diluted by assay buffer to the final concentration. […]. […] Enzyme with the inhibitor was preincubated for 5 min in the assay mixture and then the reaction was started by addition of 20 µL of substrate (ATC for AChE, BTC for BuChE). The enzyme activity was determined by measuring the increase in absorbance at 412 nm at 37 °C at 2 min intervals using a Multi-mode microplate reader Synergy 2 (Vermont, USA). Each concentration was assayed in triplicate. The obtained data were used to compute the percentage inhibition (I; Equation 1): I = 1−(ΔAi)/(ΔA0) [%] [formula] ΔAi indicates the absorbance change provided by cholinesterase exposed to AChE inhibitors and ΔA0 indicates absorbance change caused by intact cholinesterase (phosphate buffer was used instead of AChE inhibitor solution). […] Calculations were performed using software Microsoft Excel (Redmont, WA, USA) and GraphPad Prism version 5.02 for Windows, GraphPad Software, San Diego, CA, USA.

CCOC(=O)C1=C(C)N(CCCC2CCN(Cc3ccccc3)CC2)C(=O)NC1c1coc2cc(CC)ccc2c1=O (stereo not shown) [BIGI-3k, ethyl 1-(3-(1-benzylpiperidin-4-yl)propyl)-4-(7-ethyl-4-oxo-4H-chromen-3-yl)-6-methyl-2-oxo-1,2,3,4-tetrahydropyrimidine-5-carboxylate]
ORAC [1]: 2.75 ± 0.16 TE | IC50 [2]: 0.5 ± 0.02 µM | CNS [3]: CNS (-) | IC50 [4]: 2.95 µM

CCOC(=O)C1=C(C)N(CCC2CCN(Cc3ccccc3)CC2)C(=O)NC1c1coc2ccc(Br)cc2c1=O (stereo not shown) [BIGI-3e, ethyl 1-(2-(1-benzylpiperidin-4-yl)ethyl)-4-(6-bromo-4-oxo-4H-chromen-3-yl)-6-methyl-2-oxo-1,2,3,4-tetrahydropyrimidine-5-carboxylate]
ORAC [1]: 3.26 ± 0.12 TE | IC50 [2]: 0.06 µM | CNS [3]: CNS (+/-) | IC50 [4]: 8.4 ± 0.34 µM

CCOC(=O)C1=C(C)N(CCC2CCN(Cc3ccccc3)CC2)C(=O)NC1c1coc2c(Cl)cc(Cl)cc2c1=O (racemic) [BIGI-3h, ethyl 1-(2-(1-benzylpiperidin-4-yl)ethyl)-4-(6,8-dichloro-4-oxo-4H-chromen-3-yl)-6-methyl-2-oxo-1,2,3,4-tetrahydropyrimidine-5-carboxylate]
ORAC [1]: 3.65± 0.07 TE | IC50 [2]: 0.06 µM | CNS [3]: best ability to cross the BBB; also recorded: CNS (+) | Papp at 50 µM ([3]; PAMPA, PBS pH 7.4, 50 µM in donor well, read-out: Pe ± SEM): 4 ± 0.3 ×10⁻⁶ cm/s | IC50 [4]: 17.3 ± 0.9 µM
